Results reported in BindingDB's records for patent US12410160 (Gilead Sciences, 2025).

Legend:
Ketohexokinase = molecular target: T1, Ketohexokinase (Human, UniProt P50053); assay: KHK Biochemical Assay
T1 sequence (P50053 whole entry): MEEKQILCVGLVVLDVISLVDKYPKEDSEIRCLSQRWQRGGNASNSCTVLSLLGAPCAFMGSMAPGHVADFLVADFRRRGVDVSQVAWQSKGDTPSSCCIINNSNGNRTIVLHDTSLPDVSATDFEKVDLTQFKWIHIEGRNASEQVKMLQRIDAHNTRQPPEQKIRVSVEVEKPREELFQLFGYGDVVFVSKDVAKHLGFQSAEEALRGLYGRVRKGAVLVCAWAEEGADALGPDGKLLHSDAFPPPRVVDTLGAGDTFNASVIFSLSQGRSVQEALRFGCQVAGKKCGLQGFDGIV
Method: (§1) Compounds were tested for KHK enzyme inhibition in a high-throughput 384-well assay format using the ADP-Glo assay (Promega) in buffer consisting of 50 mM Hepes (pH 7.4), 140 mM KCl, 5 mM MgCl2 and 0.01% Triton-X. 0.2 nM. […] Compounds were serially diluted (1:3) in DMSO. […] The plates were incubated at room temperature for 4 hours before adding ADP-Glo reagent to quench the enzyme reaction, followed by incubation at room temperature for 1 hour. The ADP-Glo detection reagent was then added to the plates and luminescence was measured on the Envision plate reader after 1 hour.

[1] = molecular target: T2, Isoform A of Ketohexokinase (Peripheral) (Human, UniProt P50053); assay: KHK Biochemical Assay
T2 sequence (P50053 whole entry): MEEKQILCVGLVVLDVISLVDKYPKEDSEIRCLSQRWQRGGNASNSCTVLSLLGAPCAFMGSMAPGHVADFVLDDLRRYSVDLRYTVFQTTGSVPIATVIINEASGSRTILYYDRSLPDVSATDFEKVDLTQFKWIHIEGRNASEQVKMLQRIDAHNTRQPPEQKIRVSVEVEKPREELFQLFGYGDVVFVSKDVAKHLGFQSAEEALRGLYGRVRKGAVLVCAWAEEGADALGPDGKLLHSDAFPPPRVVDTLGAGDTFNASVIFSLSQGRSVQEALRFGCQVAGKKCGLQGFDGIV
Method: as §1

| Structure (SMILES) | IC50 (Ketohexokinase) | IC50 [1] |
| --- | --- | --- |
| C[C@H]1[C@H](O)CN1c1nc(-c2ccc3c(c2)C(NS(C)(=O)=O)CO3)c2c(n1)C(F)(F)CC2 (some centres not stated) [US12410160, Example 613] | 4.3 nM | – |
| C[C@H]1[C@H](O)CN1c1nc(-c2cccc(-n3cnnc3)c2)c2c(n1)C(F)(F)CC2 [US12410160, Example 619] | 14.3 nM | – |
| C[C@H]1CCN1c1nc2c(c(-c3cccc(C4CCS(=O)(=O)N4)c3)n1)CCC2 (some centres not stated) [US12410160, Example 606] | 15.3 nM | – |
| C[C@H]1[C@H](O)CN1c1nc(-c2ccc3c(c2)C(NS(C)(=O)=O)CC3)c2c(n1)C(F)(F)CC2 (some centres not stated) [US12410160, Example 621] | 1.3 nM | – |
| C[C@H]1CCN1c1nc2c(c(-c3cn(C4CC4)nn3)n1)CCC2 [US12410160, Example 644] | 220 nM | – |
| C[C@H]1[C@H](O)CN1c1nc2c(c(-c3cccc(S(N)(=O)=O)c3)n1)CCC2 [US12410160, Example 209] | 55.3 nM | 35.4 nM |
| C[C@H]1[C@H](O)CN1c1nc(-c2ccc3c(c2)COC[C@@H]3NS(=O)(=O)CF)c2c(n1)C(F)(F)CC2 [US12410160, Example 580] | 3.7 nM | 13 nM |
| C[C@H]1[C@H](O)CN1c1nc(-c2ccc3c(c2)C(=O)N(C)C3)c2c(n1)C(F)(F)CC2 [US12410160, Example 236] | 5.4 nM | – |
| C[C@H]1CCN1c1nc(-c2ccc(C(N)=O)cc2)c2cn[nH]c2n1 [US12410160, Example 401] | 4630 nM | – |
| C[C@H]1CCN1c1nc(-c2cccc(-n3ccnn3)c2)c2c(n1)C(F)(F)CC2 [US12410160, Example 654] | 16.4 nM | – |
| C[C@H]1CCN1c1nc2c(c(-c3ccnc(S(N)(=O)=O)c3)n1)CCC2 [US12410160, Example 224] | 114 nM | 155 nM |
| C[C@H]1CCN1c1nc2c(c(-c3cccc(S(N)(=O)=O)n3)n1)CCC2 [US12410160, Example 223] | 26.9 nM | 33.7 nM |
| C[C@H]1[C@H](O)CN1c1nc(-c2ccc3c(c2)S(=O)(=O)CC3NS(C)(=O)=O)c2c(n1)C(F)(F)CC2 (some centres not stated) [US12410160, Example 665] | 0.9 nM | – |
| C[C@H]1CCN1c1nc2c(c(-c3nc4ccccc4[nH]3)n1)CCC2 [US12410160, Example 389] | 382 nM | 296 nM |
| C[C@H]1[C@H](O)CN1c1nc(-c2ccc3c(c2)OC(C(F)F)CNC3=O)c2c(n1)C(F)(F)CC2 (some centres not stated) [US12410160, Example 597] | 5.6 nM | – |
| N#C[C@H]1CCN1c1nc(-c2ccc([C@@H](N)C(F)F)cc2)c2c(n1)C(F)(F)CC2 [US12410160, Example 660] | 5.7 nM | – |
| C[C@H]1CCN1c1nc2c(c(-c3ccc4c(c3)CN(S(=O)(=O)CC#N)CC4)n1)CCC2 [US12410160, Example 604] | 239 nM | – |
| COC(=O)N[C@@H]1COc2cc(-c3nc(N4C[C@@H](O)[C@@H]4C)nc4c3CCC4(F)F)ccc21 [US12410160, Example 815] | 9.2 nM | – |
| CCS(=O)(=O)N[C@H]1COc2cc(-c3nc(N4C[C@@H](O)[C@@H]4C)nc4c3CCC4(F)F)ccc21 [US12410160, Example 624] | 7.3 nM | – |
| C[C@H]1CCN1c1nc2c(c(-c3ccc(CNS(C)(=O)=O)cc3)n1)CCC2 [US12410160, Example 361] | 30.3 nM | 68.4 nM |
| C[C@H]1CCN1c1nc2c(c(-c3cccc(C4(N)CC4)c3)n1)CCC2 [US12410160, Example 225] | 343 nM | 294 nM |
| C[C@H]1[C@H](O)CN1c1nc(-c2cn(C3CNC3)nn2)c2c(n1)C(F)(F)CC2 [US12410160, Example 647] | 15.5 nM | – |
| C[C@H]1[C@H](F)CN1c1nc2c(c(-c3ccc4c(c3)C(=O)N(C)C4)n1)CCC2 [US12410160, Example 203] | 29.8 nM | 66.5 nM |
| C[C@H]1CCN1c1nc(-c2cn(C3CNC3)nn2)c2c(n1)C(F)(F)CC2 [US12410160, Example 653] | 8.2 nM | – |
| C[C@H]1[C@H](F)CN1c1nc2c(c(-c3cccc(S(N)(=O)=O)c3)n1)CCOC2 [US12410160, Example 287] | 1270 nM | 696 nM |
| C[C@H]1[C@H](O)CN1c1nc(-c2ccc(OC(F)F)c(S(C)(=N)=O)c2)c2c(n1)C(F)(F)CC2 (some centres not stated) [US12410160, Example 532] | 2.8 nM | – |
| COc1ccc(-c2nc(N3CC[C@@H]3C(F)(F)F)nc3c2CCC3(F)F)cc1[S@@](C)(=N)=O [US12410160, Example 825] | 0.9 nM | 0.5 nM |

| Structure (SMILES) | IC50 (Ketohexokinase) | IC50 [1] |
| --- | --- | --- |
| C[C@H]1CCN1c1nc(-c2cccc(C(N)=O)c2)c2c(n1)C1CC1C2 (some centres not stated) [US12410160, Example 272] | 319 nM | 267 nM |
| C[C@H]1[C@H](O)CN1c1nc2c(c(-c3ccc4c(N)nccc4c3)n1)CCC2 [US12410160, Example 385] | 1.8 nM | 4.2 nM |
| C[C@H]1CCN1c1nc2c(c(-c3ccc(C4(NS(C)(=O)=O)CC4)cc3)n1)CCC2 [US12410160, Example 306] | – | 279 nM |
| C[C@H]1CCN1c1nc(-c2ccc([C@H](N)C(F)F)cc2)c2c(n1)C(F)(F)CC2 [US12410160, Example 650] | 6.6 nM | – |
| C[C@H]1CCN1c1nc(-c2ccc(C#N)c(S(C)(=N)=O)c2)c2c(n1)C(F)(F)CC2 (some centres not stated) [US12410160, Example 798] | 51.9 nM | – |
| C[C@H]1[C@H](O)CN1c1nc(-c2ccc3c(c2)COCC32CCC(=O)N2)c2c(n1)C(F)(F)CC2 (some centres not stated) [US12410160, Example 639] | 1.2 nM | 15.9 nM |
| C[C@H]1[C@H](O)CN1c1nc(-c2ccc3c(c2)CNCC3)c2c(n1)C(F)(F)CC2 [US12410160, Example 612] | 32.6 nM | – |
| FC1(F)CCc2c(-c3ccc4c(c3)OC[C@@H]4NC3COC3)nc(N3CC[C@@H]3C(F)(F)F)nc21 [US12410160, Example 588] | 3.7 nM | 9.3 nM |
| C[C@H]1[C@H](O)CN1c1nc(-c2cccc(N=S3(=O)CCOCC3)c2)c2c(n1)C(F)(F)CC2 [US12410160, Example 673] | 9.2 nM | – |
| C[C@H]1CCN1c1nc2c(c(-c3ccnc(F)c3)n1)CCC2 [US12410160, Example 281] | – | 340 nM |
| C[C@H]1[C@H](O)CN1c1nc2c(c(-c3ccc(C(C)(C)O)cc3)n1)CCC2 [US12410160, Example 371] | 187 nM | 442 nM |
| Cc1cc(-c2nc(N3CC[C@@H]3C(F)(F)F)nc3c2CCC3(F)F)ccc1C1(N)COC1 [US12410160, Example 586] | 0.7 nM | 1.3 nM |
| C[C@H]1CCN1c1nc2c(c(-c3ccc4c(c3)C(=O)N(C)C4)n1)CCC2 [US12410160, Example 206] | 16 nM | 24.4 nM |
| C[C@H]1[C@H](O)CN1c1nc(-c2ccc3c(c2)CCC32COCCC(=O)N2)c2c(n1)C(F)(F)CC2 (some centres not stated) [US12410160, Example 552] | 39.2 nM | – |
| C[C@H]1[C@H](F)CN1c1nc2c(c(-c3cccc(CN)c3)n1)CCC2 [US12410160, Example 352] | 29.8 nM | 35.6 nM |
| C[C@H]1[C@H](O)CN1c1nc(-c2ccc3c(c2)CCS3(=N)=O)c2c(n1)C(F)(F)CC2 (some centres not stated) [US12410160, Example 664] | 17.3 nM | – |
| C[C@H]1[C@H](CO)CN1c1nc2c(c(-c3ccc(C(N)=O)cc3)n1)CCC2 (racemic) [US12410160, Example 267] | > 5000 nM | – |
| C[C@H]1[C@H](O)CN1c1nc(-c2ccc3c(c2)S(C)(=O)=NC3)c2c(n1)C(F)(F)CC2 (some centres not stated) [US12410160, Example 805] | 18 nM | – |
| NC1(c2ccc(-c3nc(N4CCC4C4CC(F)(F)C4)nc4c3CCC4(F)F)cc2)COC1 (configuration not stated) [US12410160, Example 573] | – | > 100 nM |
| CCOC(=O)NCc1ccc(-c2nc(N3CC[C@@H]3C)nc3c2CCC3)cc1 [US12410160, Example 358] | 293 nM | 435 nM |
| C[C@H]1[C@H](O)CN1c1nc(-c2cccc(S(=N)(=O)CC#N)c2)c2c(n1)C(F)(F)CC2 (some centres not stated) [US12410160, Example 628] | 8.8 nM | 10.3 nM |
| COC(=O)N[C@H]1COc2cc(-c3nc(N4C[C@@H](O)[C@@H]4C)nc4c3CCC4(F)F)ccc21 [US12410160, Example 814] | 1.8 nM | 71.3 nM |
| C[C@H]1CCN1c1nc2c(c(-c3cncn3C)n1)CCC2 [US12410160, Example 341] | 111 nM | 133 nM |
| C[C@H]1CCN1c1nc(-c2ccc(-n3ccnn3)cc2)c2c(n1)C(F)(F)CC2 [US12410160, Example 655] | 25.1 nM | – |
| CC1CCCc2nc(N3CC[C@@H]3C)nc(-c3ccccc3)c21 (some centres not stated) [US12410160, Example 340] | – | > 50000 nM |
| C[C@H]1CCN1c1nc2c(c(-c3cn(CCO)nn3)n1)CCC2 [US12410160, Example 645] | 158 nM | – |
| C[C@H]1CCN1c1nc2c(c(-c3ccc4c(c3)CCNC4=O)n1)CCC2 [US12410160, Example 283] | 15.8 nM | 28.6 nM |
